# What was measured:
# [1] = tested on: S. aureus; experiment: Staphyloccocus aureus macrodilution assay; assay type: cell-based, Staphylococcus aureus
# Experimental: Staphyloccocus aureus macrodilution assays. All liquid assays were performed in cation-adjusted Mueller Hinton Broth II (CMHB). Qualitative assays were performed following standard macrodilution methods as outlined by the National Committee on Clinical Laboratory Standards (Standards, N. C. f. C. L. Journal, 1999, Approved standard M26-A) with a challenge of 10^5 CFU/mL. For assays involving co-incubation with films deposited on silicon, 24-well plates were used, with 0.5 mL of liquid culture per well. Briefly, each square-cut silicon substrate (1.0 cm×1.0 cm), either bare or coated depending on the test group, was placed flat in the center of a well in a 24-well plate, polished side up. Each well was then filled with 0.50 mL of S. aureus in exponential growth phase at 10^5 CFU/mL in CMHB, completely immersing the substrate. Quantitative assays were done in 96-well plates with 150 μL of liquid culture per well, with 135 μL of test media and 15 μL of inoculation culture at 10^6 CFU/mL in CMHB. All test media were sterile-filtered through 0.2 μm membranes prior to use. […] Cell density was read at OD 600 nm in a BioTek® PowerWave™ XS Microplate Spectrophotometer with accompanying Gen5 program Version 1.00.14. […]
# Antimicrobial activity of Ponericin as released from LbL assemblies. In vitro activity of Ponericin, both in dipping solution and as released from films, were assessed against S. aureus. […]
# [2] = tested on: S. aureus; conditions: free Ponericin; cited from earlier work
substance,measurement,setting,value
Ponericin G1,concentration needed to inhibit S. aureus proliferation,[1]; dipping solution: free Ponericin in 0.1M sodium acetate (FIG. 7A),11 to 22 µg/mL
same,concentration needed to inhibit S. aureus proliferation,[1]; film-released: elution buffer of [(Poly 1/HA)(Pon/HA)]100 (FIG. 7B),11 to 22 µg/mL
same,reported MIC,[2],4 to 8 µg/mL
